Here are results for 88 molecules from a melting point compilation (Tetko et al.; mined from patent text by program, amines drawn as free bases though some values may be those of a salt).

As a reminder, the melting point is the temperature of the solid-liquid transition. The molecule `N#Cc1ccc(N2CCN(Cc3cnc4c(c3)NC(=O)[C@@H]3CCCN43)CC2)cc1F` came in with a melting point of 251 to 255 °C. Regarding `CCCCCCCCCCCCCCCC(=O)NCCCC`, the melting point lay in the range of 74 to 76 °C. As to `CC(C)P1(=O)c2ccccc2CN1C` (stereo not drawn), the melting point lay in the range of 72 to 74 °C. `CCN(CC)CCOc1cccc2c1c1cc(Cl)ccc1n2Cc1ccc(F)cc1` returned a melting point of 99 to 99.5 °C. On to `CCCOc1ccccc1-c1nc2cc(SC)ccc2c(=O)[nH]1`, for which the melting point was 156 to 158 °C. `c1ccc(C(NCc2ccc(CNC(c3ccccc3)c3ccccc3)cc2)c2ccccc2)cc1` gave a melting point of 92 to 94 °C.

Turning to `CC(=O)O[C@H]1c2cc(F)ccc2Cc2ccccc2[C@H]1C[C@@H]1COC(C)(C)O1`, the melting point was in the range of 147 to 149 °C. In turn, `C=CCC1(CC)C(=O)NC(=O)NC1=O` showed a melting point of 157 to 159 °C. Turning to `O=C(O)C=CC(=O)N(CC1CO1)NCC1CO1` (stereo not drawn), the melting point worked out at 58 °C. The molecule `O=C(O)Cc1ccc2c(c1)sc1cccc(Cl)c12` had a melting point of 203 to 206 °C. `CC(C)(C)c1cc(C=O)n(Cc2ccc(C(F)(F)F)cc2Cl)n1` yielded a melting point of 147 to 149 °C. In the case of `Cc1cccc(C(=O)O)c1OCc1ccc(C(F)(F)F)cc1` it was 104 to 106 °C; in that of `CCN1C[C@@H](C(=O)OC(C)(C)C)N(C(=O)[C@H](C)CSC(=O)c2ccccc2)C1=O`, 92 to 93 °C. For `COc1cccc(Cn2cnc3c(Br)c(NC4=NCCN4)ccc32)c1`, the melting point lay in the range of 177 to 178 °C. `CC(C)(O)c1nc(CO)n(Cc2ccc(-c3ccccc3-c3nnn[nH]3)cc2)c1C(=O)O` showed a melting point of 201 to 202 °C.

In the case of `Cc1ccc2c(c1)CN(C)C(c1ccc(C(C)(C)C)cc1)C2` (stereo not drawn), the melting point fell in the range of 106 to 108 °C.

`NC(=O)c1ncn2c1CN=C(c1ccccc1F)c1cc(Cl)ccc1-2`: the melting point lay in the range of 292 to 294 °C. Molecule `CCOc1cc(CCl)nc(C)n1` displayed a melting point of 29 °C. `CCn1c2c(c3ccccc31)S(=O)(=O)N(C)C(C(=O)Nc1ccccn1)=C2O` registered a melting point of 232 °C. In the case of `CC(=O)OC(CCC(C)(C)C)C(C)C1CCC2C3CC=C4CC(O)CCC4(C)C3CCC12C` (stereo not drawn), the melting point lay within 210 to 212 °C. Take `CC1=Cc2cc(-c3nnn[nH]3)ccc2OC1(C)C`: the melting point was 179 to 181 °C. In the case of `O=C(NCc1ccccn1)Nc1cc(N2CC(COc3ccccc3)CC2=O)ccn1` (stereo not drawn) it was 135 to 137 °C. The molecule `CCCCn1c(=S)sc2c(=N)n(NC(=O)c3ccco3)cnc21` registered a melting point of 210 °C. Turning to `COc1ccc(COc2cccc(N)c2N)cc1`, the melting point stood at 127 °C. Turning to `CCn1c2ccccc2c2cc(C(C#N)=C(C#N)c3ccc(C(F)(F)F)cc3)ccc21`, the melting point lay within 180 to 182 °C. In the case of `CC1(C)Sc2cc(Cl)ccc2C2=NN(C(=O)Nc3ccc(C(F)(F)F)cc3)CC21` (stereo not drawn), the melting point is 200 to 202 °C. Take `Brc1cccc(-c2ccnn2-c2ccc3c(c2)OCO3)c1`: the melting point was 195 to 197 °C. In the case of `CCCOc1ccc(C(=O)N/C(=C\c2ccc(OC(F)(F)F)cc2)C(=O)NCCO)cc1`, the melting point lay within 185 to 186 °C. `CN(C)CC#Cc1cnc2c(c1)N(Cc1cc(Cl)ccc1Cl)CCN2` yielded a melting point of 168 °C. The molecule `COc1cccc([C@H]2O[C@H](CC(=O)O)C(=O)N(CC(C)(CO)CO)c3ccc(Cl)cc32)c1OC` gave a melting point of 208 to 210 °C.

Consider `CCCOc1nc2c(Cl)scc2c(=O)n1CCC`, for which the melting point lay within 93 to 95 °C.

`CSCCOc1ccc(-c2ccc3c(c2)C=C(C(=O)Nc2ccc(CN(C)C4CCOCC4)cc2)CCS3(=O)=O)cc1` gave a melting point of 222 to 224 °C. As for `CCOC(=O)Cn1c(-c2cc3c(cc2N)OCO3)nc2ccccc21`, the figure is 284 to 287 °C. For the molecule `Nc1ccc(S(=O)(=O)c2cc(C3CC3)nc(N3CCCC3)c2)cc1`, the melting point fell in the range of 216 to 218 °C. Consider `O=C(O)[C@H](Cc1ccc(O)cc1)NC(=O)C1(NC(=O)C2(S)CCCC2)CCCC1`, for which the melting point was determined as 90 °C.

`COc1ccc(C(=C(C)C(=O)O)c2ccc(OC)cc2)cc1` yielded a melting point of 134 to 135 °C. `Oc1ccccc1-c1nnn[nH]1`: the melting point was found to be 228 °C. Molecule `C[C@H](O)CNc1nc(Oc2ccc(F)cc2F)cc2[nH]nc(-c3ccccc3Cl)c12` showed a melting point of 171 to 172 °C.

Consider `CC1CCN(c2ccc([N+](=O)[O-])cc2C(=O)c2ccccc2Cl)CC1`, for which the melting point was 84 °C.

Molecule `CCCc1nc2c(N)nc3ccccc3c2n1CC(C)(C)C(N)=O` showed a melting point of 219 to 221 °C. For `CCC(Oc1cc(Cl)cc(Cl)c1)C(=O)NC(C)(C)C#CCOC` (stereo not drawn), the melting point is 103 to 104 °C.

Molecule `COc1ccccc1-c1nc2cc(NC(=O)OC(C)(C)C)ccn2n1` displayed a melting point of 203 °C. In the case of `COc1ccc2c(c1)c(Cc1nc(-c3csc4ccccc34)cs1)c(C)n2C(=O)c1ccc(Cl)cc1` it was 68 to 72 °C; in that of `CC(=O)Nc1nc(-c2ccc([N+](=O)[O-])cc2)c(C)[nH]1`, 230 to 235 °C. With `NC(=O)c1ccc(N2CCN(CCC3=CCCc4ccccc43)CC2)cc1`, the melting point is 216 °C. In the case of `CCOC(=O)c1cnc2ccccc2c1O`, the melting point came to 266 °C. In the case of `CCOC(=O)C(=O)c1ccc2c(c1)CCCO2` it was 119 to 121 °C; in that of `CCC(CC)(NC(=O)CCn1cnc(CC#N)c1)c1ccccc1`, 121 to 122 °C; in that of `COc1ccc(-c2c(Br)c(CN3C(=O)CCC3=O)nc3sc4c(c23)CCN(Cc2ccccc2)C4)cc1`, 255 to 256 °C.

With `Cc1ccccc1C1C(C#N)=C(c2ccccc2)Nc2n[nH]cc21` (stereo not drawn), the melting point amounted to 246 °C.

Molecule `COc1ccc(NC(=O)c2ccc(OC)c(C34CC5CC(CC(C5)C3)C4)c2)c(N)c1` had a melting point of 211 to 213 °C. In turn, `CCOC(=O)c1cnc(CCOC)nc1NCc1ccc(-c2ccccc2-c2nnn[nH]2)cc1` showed a melting point of 122 to 124 °C. In the case of `O=C1NCc2c1ccc(Nc1ccccc1)c2Nc1ccccc1`, the melting point turned out to be 225 °C. As for `c1ccc(-c2ccc3oc(COc4ccc(CCCn5ccnc5)cc4)nc3c2)cc1`, the figure is 123 to 124 °C; as for `Cc1ccc(C2CN(c3cc4c(cc3F)ncc3c4c(=O)c(C(=O)O)cn3C)CCN2)cc1C` (stereo not drawn), 325 °C; as for `Cc1nc(N)c2nc(C)n(CCOCCN)c2c1C`, 130 to 133 °C. In the case of `CCCCNS(=O)(=O)c1cc(C(=O)O)cc([N+](=O)[O-])c1Cl`, the melting point lay within 199 to 201 °C.

With `COc1cc(CCl)c(OCCC(C)CCCC(C)C)cc1CCl` (stereo not drawn), the melting point is 65 °C. As for `CCOC(=O)c1cn2c3c(cc(CN4CCOCC4)cc3c1=O)OC(c1ccccc1)C2` (stereo not drawn), the figure is 213 to 215 °C.

`COc1cc(CCCS2(OCC(=O)O)C=CN=C2)cc(OCc2ccc3ccccc3c2)c1` (stereo not drawn) came in with a melting point of 160 to 161 °C. `CC(C)SC1=C(C#N)C(c2ccccc2)(c2ccccc2)C(=O)N1` showed a melting point of 160 °C. Turning to `O=C1CNc2ncc(I)cc2N1Cc1cc(Cl)ccc1Cl`, the melting point was greater than 200 °C.

As for `COc1ccc(-c2cnc3cc4cnn(C[C@@H]5COC(C)(C)O5)c4cc3n2)cc1F`, the melting point fell in the range of 145 to 151 °C. In the case of `CCCCCCCCCCCCCc1c[nH]c(C(=O)OC)c1` it was 80 to 82 °C. In the case of `CC(=NOCCO)c1ccc2ccccc2n1` it was 89 °C. The molecule `Cc1c(C=CC=O)c2c(c(C)c1OCc1ccccc1)CCC(C)(C)O2` gave a melting point of 89 to 99.5 °C.

The molecule `Cc1ccc(S(=O)(=O)NCCc2ccc(C(=O)CBr)cc2)cc1` showed a melting point of 133 to 136 °C. On to `O=C1Cc2cc3c(CCC4CCN(Cc5ccccc5)CC4)noc3cc2N1`, for which the melting point was in the range of 118 to 119 °C. `CC(C)CC1(C(CCN2C(=O)c3c(F)ccc(F)c3C2=O)C(=O)NO)CCN(CCc2ccccc2)C1=O` (stereo not drawn): the melting point fell in the range of 131 to 132 °C. As for `Fc1ccc(-c2[nH]c(=S)sc2CCCl)cc1`, the figure is 176 °C. Molecule `COc1cccc2c1CCC[C@H]2NC(=O)c1cccc(Cl)c1O` displayed a melting point of 175 to 176 °C. As to `CCOC(=O)C1(C(=O)OCC)CCC2(NCCc3cc(OC)c(OC)cc32)C(C2c3cc(OC)c(OC)cc3CCN2C(C)=O)C1` (stereo not drawn), the melting point was in the range of 146 to 149 °C. With `Cc1noc(NS(=O)(=O)c2cc(Cl)ccc2Cl)c1Br`, the melting point fell in the range of 148 to 150 °C. As to `COCOc1cc(F)ccc1-c1cc(-c2cccc(NC(=O)CN(C)C)c2)c(C#N)c(NC(=O)c2ccco2)n1`, the melting point lay in the range of 168 to 169 °C.

In turn, `CCOP(=O)(CCNC(=O)c1c(CC)nc2cc(OC)c(OC)cc2c1-c1ccc(OC)c(OC)c1)OCC` showed a melting point of 157 to 158 °C. `CC(C)CCOc1c(-c2ccc(S(C)(=O)=O)cc2)cnn(-c2ccc(F)c(F)c2)c1=O` registered a melting point of 121 to 123 °C. The molecule `O=C1N(Cc2nccnc2C(F)(F)F)c2ccccc2C12COc1cc3c(cc12)OCCO3` (stereo not drawn) gave a melting point of 230 to 232 °C. Regarding `CCCCCCCCCCCCCCCCCCOc1cccc2c(O)cccc12`, the melting point lay within 90 to 92 °C. For `O=C(Nc1ncc(C(F)(F)F)o1)C1c2ccccc2Oc2ccccc21`, the melting point stood at 218 °C. Molecule `CCOC(=O)C(=O)CC(=O)N1CCOCC1` displayed a melting point of 60 °C. In turn, `CCCCC(=O)OC1C(O)C(CO)OC1n1cnc2c(OC)nc(N)nc21` (stereo not drawn) showed a melting point of 83 to 86 °C. For the molecule `CC1CC(=O)NN=C1c1ccc2[nH]c(-c3ccncc3)cc2c1` (stereo not drawn), the melting point was 301 to 303 °C.

Molecule `O=C(O)c1cnc2c3cccc([N+](=O)[O-])c3ccn2c1=O` yielded a melting point greater than 300 °C. `CC(C)CCC(=O)NC(C)(Cc1c[nH]c2ccccc12)C(=O)NC(Cc1ccccc1)C(N)=O` (racemic) gave a melting point of 170 to 171 °C. Molecule `CC(C)(C)C(=O)Nc1ccc2oc3c(c2c1)CCCCC3` had a melting point of 208 to 209 °C. In the case of `CN(C)Cc1ccc(CSCCNC(=C[N+](=O)[O-])NCc2ccc3c(c2)OCO3)o1` it was 98 to 120 °C; in that of `COc1ccc(C(O)CNCc2cccc(OC)c2OC)cc1OC` (stereo not drawn), 96 to 97 °C; in that of `CC(Cl)C(=O)Nc1nc(-c2ccccc2)cs1` (stereo not drawn), 98 to 99 °C.
